From article PMC6326728, “eIF2B activator prevents neurological defects caused by a chronic integrated stress response” (eLife, 2019)

Key:
Test in all cases: biochemical
Parameters in all cases: CEREP panel radioligand binding displacement, % inhibition of control specific binding by 10 uM 2BAct
BZD (peripheral) = target: T1, BZD (peripheral) (Rattus norvegicus, UniProt P16257); details: Type=Antagonist radioligand; read-out: % inhibition of Control specific binding
T1 construct: gene Tspo; peripheral
T1 sequence (P16257 whole entry): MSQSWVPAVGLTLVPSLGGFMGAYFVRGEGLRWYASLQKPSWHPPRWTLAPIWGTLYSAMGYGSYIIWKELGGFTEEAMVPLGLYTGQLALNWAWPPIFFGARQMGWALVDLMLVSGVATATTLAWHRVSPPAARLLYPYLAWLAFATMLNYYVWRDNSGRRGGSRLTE
Method: (§1) Supplementary file elife-42940-supp1.xlsx: Supplementary file 1. (A) Binding of 2BAct at 10 μM to the CEREP panel of receptors/enzymes/ion channels. Compound binding was calculated as a % inhibition of the binding of a radioactively labeled ligand specific for each target. Results showing inhibition or stimulation higher than 50% are considered to represent significant effects of the test compound. (B) Pharmacokinetic data from 2BAct dosing in mice. (C) GO Biological Processes identified by enrichment analysis of RNA-seq data. (D) List of genes used for enrichment analysis of scRNA-seq data.

dopamine transporter (h) = target: T2, dopamine transporter (h) (Homo sapiens, UniProt Q01959); details: Type=Antagonist radioligand; read-out: % inhibition of Control specific binding
T2 construct: gene SLC6A3
Method: as §1

PPARg (h) = PPARg (h) (Homo sapiens, UniProt P37231); details: Type=Agonist radioligand; read-out: % inhibition of Control specific binding
Chain of PPARg (h) (P37231 whole entry): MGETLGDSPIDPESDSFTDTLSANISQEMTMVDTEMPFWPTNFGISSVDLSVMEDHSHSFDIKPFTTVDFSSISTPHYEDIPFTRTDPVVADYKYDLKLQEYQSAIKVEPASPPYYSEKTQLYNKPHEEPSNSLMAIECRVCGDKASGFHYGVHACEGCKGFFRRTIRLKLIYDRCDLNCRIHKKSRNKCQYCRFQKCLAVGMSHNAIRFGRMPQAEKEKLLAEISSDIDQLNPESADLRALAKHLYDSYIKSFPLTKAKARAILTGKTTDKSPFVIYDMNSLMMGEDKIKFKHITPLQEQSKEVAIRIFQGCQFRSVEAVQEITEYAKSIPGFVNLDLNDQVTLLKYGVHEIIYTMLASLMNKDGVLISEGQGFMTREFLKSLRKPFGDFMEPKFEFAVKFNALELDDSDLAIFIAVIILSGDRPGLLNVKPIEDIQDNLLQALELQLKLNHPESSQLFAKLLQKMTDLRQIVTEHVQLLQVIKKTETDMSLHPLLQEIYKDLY
Method: as §1

5-HT transporter (h) = target: T3, 5-HT transporter (h) (Homo sapiens, UniProt P31645); details: Type=Antagonist radioligand; read-out: % inhibition of Control specific binding
T3 construct: gene SLC6A4
T3 sequence (P31645 whole entry): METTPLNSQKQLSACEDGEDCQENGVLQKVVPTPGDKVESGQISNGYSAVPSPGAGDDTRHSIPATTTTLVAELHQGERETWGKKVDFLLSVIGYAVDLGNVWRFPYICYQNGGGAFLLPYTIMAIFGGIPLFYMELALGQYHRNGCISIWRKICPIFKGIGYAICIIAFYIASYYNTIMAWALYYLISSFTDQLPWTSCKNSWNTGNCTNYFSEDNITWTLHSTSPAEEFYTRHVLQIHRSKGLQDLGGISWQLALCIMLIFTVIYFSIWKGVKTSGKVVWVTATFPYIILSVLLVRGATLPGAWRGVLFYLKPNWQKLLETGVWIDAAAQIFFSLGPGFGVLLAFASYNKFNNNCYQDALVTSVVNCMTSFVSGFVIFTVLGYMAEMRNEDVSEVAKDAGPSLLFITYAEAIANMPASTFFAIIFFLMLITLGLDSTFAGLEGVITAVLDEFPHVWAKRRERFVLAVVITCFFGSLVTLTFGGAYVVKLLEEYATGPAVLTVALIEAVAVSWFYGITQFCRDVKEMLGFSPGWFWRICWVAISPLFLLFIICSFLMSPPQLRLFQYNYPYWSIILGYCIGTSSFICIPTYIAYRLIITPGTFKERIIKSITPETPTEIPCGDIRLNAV
Method: as §1

A1 (h) = target: T4, A1 (h) (Homo sapiens, UniProt P30542); details: Type=Antagonist radioligand; read-out: % inhibition of Control specific binding
T4 construct: gene ADORA1
Method: as §1

motilin (h) = target: T5, motilin (h) (Homo sapiens, UniProt O43193); details: Type=Agonist radioligand; read-out: % inhibition of Control specific binding
T5 construct: gene MLNR
Method: as §1

M4 (h) = target: T6, M4 (h) (Homo sapiens, UniProt P08173); details: Type=Antagonist radioligand; read-out: % inhibition of Control specific binding
T6 construct: gene CHRM4
T6 sequence (P08173 whole entry): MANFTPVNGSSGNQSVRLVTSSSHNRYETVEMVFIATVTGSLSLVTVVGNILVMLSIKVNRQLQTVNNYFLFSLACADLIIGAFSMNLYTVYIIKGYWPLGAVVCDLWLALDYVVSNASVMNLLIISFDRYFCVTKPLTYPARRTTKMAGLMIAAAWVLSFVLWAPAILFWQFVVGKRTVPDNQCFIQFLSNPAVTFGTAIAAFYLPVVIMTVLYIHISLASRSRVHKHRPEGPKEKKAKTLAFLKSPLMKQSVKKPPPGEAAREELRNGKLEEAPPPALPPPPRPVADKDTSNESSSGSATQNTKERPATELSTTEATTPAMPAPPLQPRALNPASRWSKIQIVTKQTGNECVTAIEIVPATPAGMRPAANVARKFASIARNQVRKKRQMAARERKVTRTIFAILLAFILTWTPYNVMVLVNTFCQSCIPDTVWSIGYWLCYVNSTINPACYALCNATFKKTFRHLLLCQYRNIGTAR
Method: as §1

5-HT2C (h) = target: T7, 5-HT2C (h) (Homo sapiens, UniProt P28335); details: Type=Antagonist radioligand; read-out: % inhibition of Control specific binding
T7 construct: gene HTR2C
T7 sequence (P28335 whole entry): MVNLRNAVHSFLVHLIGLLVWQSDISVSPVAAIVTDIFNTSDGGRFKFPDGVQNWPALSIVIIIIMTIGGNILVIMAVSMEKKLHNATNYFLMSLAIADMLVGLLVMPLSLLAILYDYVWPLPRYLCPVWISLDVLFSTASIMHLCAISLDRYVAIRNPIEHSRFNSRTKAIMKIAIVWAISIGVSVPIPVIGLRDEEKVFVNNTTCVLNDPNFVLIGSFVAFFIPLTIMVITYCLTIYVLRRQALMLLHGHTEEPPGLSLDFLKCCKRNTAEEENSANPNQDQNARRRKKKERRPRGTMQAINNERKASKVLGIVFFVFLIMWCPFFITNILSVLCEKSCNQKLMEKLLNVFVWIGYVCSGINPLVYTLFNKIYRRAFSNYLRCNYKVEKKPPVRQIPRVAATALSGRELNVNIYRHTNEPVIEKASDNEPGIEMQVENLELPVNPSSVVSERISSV
Method: as §1

M5 (h) = target: T8, M5 (h) (Homo sapiens, UniProt P08912); details: Type=Antagonist radioligand; read-out: % inhibition of Control specific binding
T8 construct: gene CHRM5
Method: as §1

b1 (h) = target: T9, b1 (h) (Homo sapiens, UniProt P08588); details: Type=Agonist radioligand; read-out: % inhibition of Control specific binding
T9 construct: gene ADRB1
Method: as §1

AT1 (h) = target: T10, AT1 (h) (Homo sapiens, UniProt P30556); details: Type=Antagonist radioligand; read-out: % inhibition of Control specific binding
T10 construct: gene AGTR1
Method: as §1

Y1 (h) = target: T11, Y1 (h) (Homo sapiens, UniProt P25929); details: Type=Agonist radioligand; read-out: % inhibition of Control specific binding
T11 construct: gene NPY1R
Method: as §1

a1B (h) = target: T12, a1B (h) (Homo sapiens, UniProt P35368); details: Type=Antagonist radioligand; read-out: % inhibition of Control specific binding
T12 construct: gene ADRA1B
Method: as §1

a1A (h) = target: T13, a1A (h) (Homo sapiens, UniProt P35348); details: Type=Antagonist radioligand; read-out: % inhibition of Control specific binding
T13 construct: gene ADRA1A
T13 sequence (P35348 whole entry): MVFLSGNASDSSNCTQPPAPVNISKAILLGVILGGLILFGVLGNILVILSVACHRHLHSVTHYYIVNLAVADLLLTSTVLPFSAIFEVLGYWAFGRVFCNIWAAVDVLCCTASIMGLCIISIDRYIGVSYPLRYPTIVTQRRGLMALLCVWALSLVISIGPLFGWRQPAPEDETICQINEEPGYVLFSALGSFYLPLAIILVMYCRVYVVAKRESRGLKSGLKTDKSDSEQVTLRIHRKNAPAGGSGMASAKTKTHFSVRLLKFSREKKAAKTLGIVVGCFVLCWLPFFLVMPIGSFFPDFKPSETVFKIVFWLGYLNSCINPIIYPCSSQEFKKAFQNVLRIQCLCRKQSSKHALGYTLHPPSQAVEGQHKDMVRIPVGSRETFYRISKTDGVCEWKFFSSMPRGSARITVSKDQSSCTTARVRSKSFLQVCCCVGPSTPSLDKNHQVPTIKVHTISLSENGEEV
Method: as §1

VPAC1 (VIP1) (h) = target: T14, VPAC1 (VIP1) (h) (Homo sapiens, UniProt P32241); details: Type=Agonist radioligand; read-out: % inhibition of Control specific binding
T14 construct: gene VIPR1
T14 sequence (P32241 whole entry): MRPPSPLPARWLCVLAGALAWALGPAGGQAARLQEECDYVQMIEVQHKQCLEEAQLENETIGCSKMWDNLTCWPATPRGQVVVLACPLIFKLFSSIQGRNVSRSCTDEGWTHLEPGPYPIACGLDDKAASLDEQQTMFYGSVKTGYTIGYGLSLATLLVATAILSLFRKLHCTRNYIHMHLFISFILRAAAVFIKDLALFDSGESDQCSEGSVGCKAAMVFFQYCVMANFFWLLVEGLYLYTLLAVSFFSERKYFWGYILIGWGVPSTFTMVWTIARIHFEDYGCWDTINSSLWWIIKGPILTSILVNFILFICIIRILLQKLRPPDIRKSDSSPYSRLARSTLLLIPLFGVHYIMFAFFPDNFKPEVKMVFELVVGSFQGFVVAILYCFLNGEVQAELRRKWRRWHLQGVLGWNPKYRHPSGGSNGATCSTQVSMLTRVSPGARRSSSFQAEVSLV
Method: as §1

GR (h) = target: T15, GR (h) (Homo sapiens, UniProt P04150); details: Type=Agonist radioligand; read-out: % inhibition of Control specific binding
T15 construct: gene NR3C1
T15 sequence (P04150 whole entry): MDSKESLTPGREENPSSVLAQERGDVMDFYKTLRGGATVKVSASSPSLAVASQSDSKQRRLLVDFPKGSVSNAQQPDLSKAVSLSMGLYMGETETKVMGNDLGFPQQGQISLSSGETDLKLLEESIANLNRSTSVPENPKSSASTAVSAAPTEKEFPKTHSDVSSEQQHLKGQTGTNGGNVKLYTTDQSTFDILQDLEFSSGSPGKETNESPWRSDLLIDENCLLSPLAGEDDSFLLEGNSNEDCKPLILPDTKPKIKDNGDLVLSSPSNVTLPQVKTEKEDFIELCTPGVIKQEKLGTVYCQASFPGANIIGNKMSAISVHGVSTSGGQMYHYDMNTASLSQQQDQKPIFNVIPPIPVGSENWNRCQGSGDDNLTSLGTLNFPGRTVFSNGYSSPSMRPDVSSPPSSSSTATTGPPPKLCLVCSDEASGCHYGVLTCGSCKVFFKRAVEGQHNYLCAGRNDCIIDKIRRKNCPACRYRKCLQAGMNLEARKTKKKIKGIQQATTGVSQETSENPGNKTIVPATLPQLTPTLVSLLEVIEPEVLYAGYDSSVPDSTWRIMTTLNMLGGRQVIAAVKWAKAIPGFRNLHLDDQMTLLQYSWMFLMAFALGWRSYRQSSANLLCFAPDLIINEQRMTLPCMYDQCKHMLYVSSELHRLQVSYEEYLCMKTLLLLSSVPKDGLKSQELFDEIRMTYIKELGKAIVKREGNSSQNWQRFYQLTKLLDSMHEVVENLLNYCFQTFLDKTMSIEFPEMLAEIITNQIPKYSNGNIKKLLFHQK
Method: as §1

M1 (h) = target: T16, M1 (h) (Homo sapiens, UniProt P11229); details: Type=Antagonist radioligand; read-out: % inhibition of Control specific binding
T16 construct: gene CHRM1
Method: as §1

5-HT7 (h) = target: T17, 5-HT7 (h) (Homo sapiens, UniProt P34969); details: Type=Agonist radioligand; read-out: % inhibition of Control specific binding
T17 construct: gene HTR7
Method: as §1

d (DOP) (h) = target: T18, d (DOP) (h) (Homo sapiens, UniProt P41143); details: Type=Agonist radioligand; read-out: % inhibition of Control specific binding
T18 construct: gene OPRD1
T18 sequence (P41143 whole entry): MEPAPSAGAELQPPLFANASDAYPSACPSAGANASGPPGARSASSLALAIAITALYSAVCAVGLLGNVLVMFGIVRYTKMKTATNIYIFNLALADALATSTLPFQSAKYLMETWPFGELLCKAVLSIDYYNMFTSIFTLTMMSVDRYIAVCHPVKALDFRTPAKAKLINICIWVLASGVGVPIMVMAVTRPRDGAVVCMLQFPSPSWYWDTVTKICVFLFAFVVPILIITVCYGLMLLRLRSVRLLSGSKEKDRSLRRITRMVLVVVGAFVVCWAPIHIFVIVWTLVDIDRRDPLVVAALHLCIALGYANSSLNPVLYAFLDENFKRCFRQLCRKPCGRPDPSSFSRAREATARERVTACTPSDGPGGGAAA
Method: as §1

5-HT3 (h) = target: T19, 5-HT3 (h) (Homo sapiens, UniProt P46098); details: Type=Antagonist radioligand; read-out: % inhibition of Control specific binding
T19 construct: gene HTR3A
Method: as §1

[1] = target: T20, norepinephrine transporter (h) (Homo sapiens, UniProt P23975); details: Type=Antagonist radioligand; read-out: % inhibition of Control specific binding
T20 construct: gene SLC6A2
T20 sequence (P23975 whole entry): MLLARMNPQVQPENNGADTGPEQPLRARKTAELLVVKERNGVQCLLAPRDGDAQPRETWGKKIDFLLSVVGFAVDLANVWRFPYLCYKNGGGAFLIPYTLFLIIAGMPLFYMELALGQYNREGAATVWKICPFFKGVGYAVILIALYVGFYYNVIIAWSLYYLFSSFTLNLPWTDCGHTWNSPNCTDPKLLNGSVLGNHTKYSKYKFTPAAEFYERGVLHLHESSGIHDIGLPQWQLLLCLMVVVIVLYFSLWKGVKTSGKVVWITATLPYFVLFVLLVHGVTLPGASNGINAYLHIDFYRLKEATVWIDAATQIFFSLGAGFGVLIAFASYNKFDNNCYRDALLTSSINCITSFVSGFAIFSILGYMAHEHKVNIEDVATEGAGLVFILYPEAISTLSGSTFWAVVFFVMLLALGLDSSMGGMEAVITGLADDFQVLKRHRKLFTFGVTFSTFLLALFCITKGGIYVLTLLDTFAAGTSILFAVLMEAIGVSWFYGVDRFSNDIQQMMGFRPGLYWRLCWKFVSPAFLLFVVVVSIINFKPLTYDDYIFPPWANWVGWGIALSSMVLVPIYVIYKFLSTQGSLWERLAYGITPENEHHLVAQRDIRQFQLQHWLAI
Method: as §1

A2a (h) = target: T21, A2a (h) (Homo sapiens, UniProt P29274); details: Type=Agonist radioligand; read-out: % inhibition of Control specific binding
T21 construct: gene ADORA2A
Method: as §1

Molecule `O=C(COc1ccc(Cl)c(F)c1)NC12CC(NC(=O)c3cnc(C(F)F)cn3)(C1)C2` [2BAct] has an inhibition at 10 µM (BZD (peripheral)) of 36.2%, an inhibition at 10 µM (dopamine transporter (h)) of 53.2% and an inhibition at 10 µM (PPARg (h)) of 19%. For the same molecule, the inhibition at 10 µM (5-HT transporter (h)) was 7.9%, the inhibition at 10 µM (A1 (h)) was 2.1% and the inhibition at 10 µM (motilin (h)) was -10.8%. It also gave an inhibition at 10 µM (M4 (h)) of 11%, an inhibition at 10 µM (5-HT2C (h)) of 38.7% and an inhibition at 10 µM (M5 (h)) of 11.8%. The inhibition at 10 µM (b1 (h)) was 7.8%, the inhibition at 10 µM (AT1 (h)) was 13.2% and the inhibition at 10 µM (Y1 (h)) was -17.4%. For the same molecule, the inhibition at 10 µM (a1B (h)) was -14.2%, the inhibition at 10 µM (a1A (h)) was 6.6% and the inhibition at 10 µM (VPAC1 (VIP1) (h)) was -9.7%. The inhibition at 10 µM (GR (h)) was 3.2%, the inhibition at 10 µM (M1 (h)) was 2.6% and the inhibition at 10 µM (5-HT7 (h)) was 3.9%. It also gave an inhibition at 10 µM (d (DOP) (h)) of 2.9%, an inhibition at 10 µM (5-HT3 (h)) of 9.2% and an inhibition at 10 µM [1] of 61%. It also gave an inhibition at 10 µM (A2a (h)) of 24.8%.
